In patent US11612601B1, “Targeting epidermal growth factor to treat vascular calcification” (THE FLORIDA INTERNATIONAL UNIVERSITY BOARD OF TRUSTEES, priority 2022, dated 2023):

What was measured:
CKD mice [1] = assay: EVs isolated from mouse aortas: CAV1 immunoblot and TNAP activity; type: in vivo; conditions: CKD mice treated vs CKD
Experimental: Immediately after scanning, the tissue was incubated in a digestive solution of sucrose (0.25 M, Sigma, S7903), NaCl (0.12 M, Fisher Chemical, BP358), KCl (0.01 M, Fisher Chemical, P217), Tris hydrochloride (0.02 M, Fisher Chemical, BP153), and collagenase (600 U/mL, Worthington Biochemical, LS004174) for 2 hours at 37° C. The solution was then centrifuged at 1,000×g for 15 min to remove cell debris and at 33,000×g for 30 min to remove microvesicles. Finally, the supernatants were ultracentrifuged (Beckman Coulter, Optima MAX-TL) at 100,000×g for 1 hour to isolate the EVs of interest. The pellet was suspended in RIPA lysis and extraction buffer (G Biosciences, 786-489) supplemented with pierce protease inhibitor (Thermo Scientific, A32963). To yield sufficient protein concentration for analysis, EVs isolated from 2 to 3 aortas were pooled.
For EV TNAP activity measurement, after ultracentrifugation at 100,000×g for 1 hour, the pellets were re-suspended in 120 μL buffer assay. […]
(§1) To quantify the total protein, the membranes were stained using 2% w/v Ponceau stain (Alfa Aesar, AAJ6074409) for 20 min, followed by one wash with 5% acetic acid and milliQ water for 5 min. After imaging, the intensity of each lane was measured in ImageJ for total protein normalization. […] The protein bands were visualized with Odyssey CLx scanner (Li-Cor), and quantified using Image Studio Lite software (Li-Cor).

CKD mice [2] = assay: Aorta immunofluorescence and subcellular (cytosolic) fractionation in CKD mice; type: in vivo, mouse
Experimental: 8-week-old wild type C57BL/6J mice (n=20, female) received the adenine-supplemented diet for 6 weeks to induce CKD, followed by two additional weeks of the diet containing 1.8% phosphate and 0.2% adenine to induce medial calcinosis. Mice were split into two groups (10 per group). The first group received daily tyrphostin AG1478 (10 mg/kg mouse), while the other group received vehicle (1% w/v, carboxymethylcellulose sodium salt). At study endpoint, the animals were euthanized, and the aortas were resected.
A subcellular protein fractionation kit for tissue (Thermofisher, 87790) was used to isolate cellular cytosolic fraction from the resected aortas, using the manufacturer's protocol. Briefly, the tissues were minced and homogenized using a grinder. The samples were then incubated in a cytoplasmic extraction buffer for 10 min at 4° C., followed by centrifugation at 1000×g for 5 min. The supernatants yielded the cytosolic fraction. To obtain sufficient protein for analyses, two aortas were pooled per data point.
(§2) VSMCs, osteoblasts, isolated EVs (either from cells or mouse aortas), and matrix vesicles (from osteoblasts) were lysed in RIPA lysis and extraction buffer supplemented with protease inhibitor. After adding Laemmli SDS-sample buffer (1:4 v/v, Boston BioProducts, BP-110R) to each lysate, the samples were denatured at 100° C. for 10 min, loaded into 7.5-12% 1-mm SDS-PAGE gel (15 to 20 μg protein per lane), and run at 170 V. The proteins were then transferred to Trans-Blot turbo nitrocellulose membranes (BIO-RAD, 1704158) at 25 V for 7 min.
as §1, with “normalization. Membranes were blocked with 5% w/v bovine serum albumin (HyClone, SH30574.01) in TBS-Tween (1×) for 1 hour.” for “normalization.”, “(Li-Cor). […]” for “(Li-Cor).”

CKD mice [3] = assay: Serum EGFR level and serum TNAP activity in CKD mice; type: in vivo, mouse; conditions: 10 mg/kg daily, vs CKD
[4] = system: Primary human coronary artery vascular smooth muscle cells; assay: EVs isolated from VSMC cultures: protein immunoblot and TNAP activity; type: cell-based
Experimental: To assess the role of EGFR inhibition, tyrphostin AG1478 (Millipore Sigma, T4182) was dissolved in vehicle (DMSO:Methanol, 1:1) and added to OS media to a final concentration of 2.5 μM. An equal volume of vehicle was added to the control and OS groups. It shown that 28 days in OS culture media led to robust calcification by VSMCs; therefore, all cultures (n=3, independent donors, male and female) were treated for 28 days and media were replaced every three days. On days 6, 13, 20, and 27 the media were replaced by an extracellular-vesicle-free (EV-free) media (ultracentrifuged for 15 hours at 100,000×g at 4° C. to remove background EVs common in the serum). After 24 hours, conditioned media were collected on days 7, 14, 21, and 28. Collected media were centrifuged at 1,000×g for 5 min to remove cell debris. EV isolation was performed using ultracentrifugation (Beckman Coulter, Optima MAX-TL) at 100,000×g for 1 hour.
For EV TNAP activity measurement, after ultracentrifugation at 100,000×g for 1 hour, the pellets were re-suspended in 120 μL buffer assay. The assessment was performed using the same assay protocol described for intracellular TNAP activity and the results were normalized to the total protein for each sample. For mice serum TNAP activity, the samples were diluted 1:20 and assessment was performed according to the manufacturer's protocol.
as §2
To quantify the total protein, the membranes were stained using 2% w/v Ponceau stain (Alfa Aesar, AAJ6074409) for 20 min, followed by one wash with 5% acetic acid and milliQ water for 5 min. After imaging, the intensity of each lane was measured in ImageJ for total protein normalization. Membranes were blocked with 5% w/v bovine serum albumin (HyClone, SH30574.01) in TBS-Tween (1×) for 1 hour. The membranes were incubated with primary antibodies of interest, including CAV1 (1:200, Abcam, ab2910), TNAP (1:200, Invitrogen, 702454), EGFR ([…], EMD Millipore, 06-874), CD63 (1:200, Abeam, ab231975), GAPDH (1:100, Abcam, ab181602), and Annexin V (1:200, proteintech, 11060-1-AP) overnight at 4° C. After three washes with TBS-Tween (1×), the membranes were incubated with secondary antibody (1:1000, Li-Cor) for 1 hour, followed by three washes with TBS-Tween (1×). The protein bands were visualized with Odyssey CLx scanner (Li-Cor), and quantified using Image Studio Lite software (Li-Cor).

[5] = treated CKD animals compared to CKD group

Structure (SMILES): COc1cc2ncnc(Nc3cccc(Cl)c3)c2cc1OC [AG1478, tyrphostin AG1478]
- CAV1 protein on EVs isolated from aortas (CKD mice [1]; p<0.0001): significantly lower
- TNAP activity of EVs isolated from aortas (CKD mice [1]; p=0.003): significantly lower
- CAV1, EGFR, and TNAP immunofluorescence in the aorta (CKD mice [2]; qualitative, CKD mice treated, compared to chow-fed controls): elevation of all three proteins
- cytosolic CAV1 protein in aorta (CKD mice [2]; [5]): higher
- cytosolic TNAP protein in aorta (CKD mice [2]; [5]): higher
- serum TNAP activity (CKD mice [3]; p=0.06): did not significantly reduce
- level of serum EGFR (CKD mice [3]; p=0.78): no significant difference
- level of CD63 on EVs from VSMCs ([4]; 28 days of culture, across in vitro groups, p=0.9): preserved
- level of Annexin V on EVs from VSMCs ([4]; OS + 2.5 μM, day 28): reduced levels
- level of EGFR on EVs from VSMCs ([4]; OS + 2.5 μM, day 28): reduced levels
- EV TNAP activity (VSMC cultures) ([4]; OS + 2.5 μM, days 14, 21, 28): reduced
- release of CAV1-positive EVs by VSMCs ([4]; OS + 2.5 μM, days 14, 21, 28): reduced
- CD63 protein within EVs from vascular SMCs ([4]; pro-calcific media + 2.5 μM, 14 days, vs control and pro-calcific media): no differences
